According to paper PMC6792352, “Limited Chemical Structural Diversity Found to Modulate Thyroid Hormone Receptor in the Tox21 Chemical Library” (Environmental Health Perspectives, 2019):
Where a name gives a salt, the structure may show the parent alone. Positions of bridges follow the written chain, without caps; N, C: chain ends. Residues, ends and D or L forms follow the SMILES beside them.

experiment: in vitro; settings: rat, gh3-tre-luc cells, AC50 (uM) modified / 1000

`CCCCC(CC)COC(=O)CCCCC(=O)OCC(CC)CCCC` (stereo not shown) [Bis(2-ethylhexyl)hexanedioate] and `CCCCCCCCCCCCCCCC(=O)O[C@@H]1[C@@H](O)[C@@H](O)[C@@H]([C@H](NC(=O)[C@@H]2C[C@@H](CCC)CN2C)[C@H](C)Cl)O[C@@H]1SC` [Clindamycin palmitate hydrochloride] cannot be ordered by CC50 at 24 h: greater than 90 µM for the first, greater than 50 µM for the second.

`O=C(Cl)/C=C/C(=O)Cl` [Fumaryl chloride] and `C=CC(=O)OCCOC(=O)CCC(=O)O` [4-[2-(Acryloyloxy)ethoxy]-4-oxobutanoic acid] cannot be ordered by CC50 at 24 h: greater than 90 µM for the first, greater than 90 µM for the second.

`Nc1nc2c(c(=O)[nH]1)N(C=O)C(CNc1ccc(C(=O)N[C@@H](CCC(=O)O)C(=O)O)cc1)CN2` (stereo partly shown) [Calcium folinate pentahydrate] and `CC(=O)SCC(CC(=O)c1ccc(C)cc1)C(=O)O` (stereo not shown) [Esonarimod] cannot be ordered by CC50 at 24 h: greater than 20 µM for the first, greater than 50 µM for the second.

Going from `CC[C@]1(O)C[C@H]2CN(CCc3c([nH]c4ccccc34)[C@@](C(=O)OC)(c3cc4c(cc3OC)N(C)[C@H]3[C@@](O)(C(N)=O)[C@H](O)[C@]5(CC)C=CCN6CC[C@]43[C@@H]65)C2)C1` [Vindesine sulfate salt] to `COc1ccc(/C=C/C(=O)Nc2ccccc2C(=O)O)cc1OC` [Tranilast], the CC50 at 24 h rises from 0.425 µM to greater than 50 µM.

`CC(C)(COC(=O)c1ccccc1)COC(=O)c1ccccc1` [Neopentyl glycol dibenzoate] and `O=C(OCCCCCOC(=O)c1ccccc1)c1ccccc1` [Pentane-1,5-diyl dibenzoate] cannot be ordered by CC50 at 24 h: greater than 90 µM for the first, greater than 90 µM for the second.

`CC1COC(=O)O1` (stereo not shown) [Propylene carbonate] and `NCC1(Cc2noc(=O)[nH]2)CCCCC1` [PD 0200347] cannot be ordered by CC50 at 24 h: greater than 90 µM for the first, greater than 90 µM for the second.

Compared with `CCc1ccc2c(c1)N(CC(C)CN(C)C)c1ccccc1S2` (stereo not shown) [Etymemazine hydrochloride], `O=C(CN1CCN(Cc2ccc3c(c2)OCO3)CC1)N1c2ccccc2Sc2ccccc21` [Fenoverine] is 2.5-fold higher in CC50 at 24 h: 9.18 µM for the first, 23.4 µM for the second.

`CCCCCSCCCCC` [Pentyl sulfide] and `CCCCCCCCCC(=O)N(C)C` [N,N-Dimethyldecanamide] cannot be ordered by CC50 at 24 h: greater than 90 µM for the first, greater than 90 µM for the second.

`NC(=O)N1c2ccccc2C=Cc2ccccc21` [Carbamazepine] and `c1ccc(COCc2ccccc2)cc1` [Dibenzyl ether] cannot be ordered by CC50 at 24 h: greater than 90 µM for the first, greater than 100 µM for the second.

`OCCN(CCO)CCN(CCO)CCO` [2,2',2'',2'''-(1,2-Ethanediyldinitrilo)tetrakisethanol] and `CN(C)CCOCCO` [2-[2-(Dimethylamino)ethoxy]ethanol] cannot be ordered by CC50 at 24 h: greater than 90 µM for the first, greater than 90 µM for the second.

`N#CCC(=O)O` [Cyanoacetic acid] and `C=C(C)C(=O)OCCCC` [Butyl methacrylate] cannot be ordered by CC50 at 24 h: greater than 90 µM for the first, greater than 90 µM for the second.

`C1N2CN3CN1CN(C2)C3` [Methenamine] and `OCCC1CCCCN1` (stereo not shown) [2-?Piperidineethanol] cannot be ordered by CC50 at 24 h: greater than 50 µM for the first, greater than 90 µM for the second.

`C=C[Si](C)(C=C)O[Si](C)(C)C` [Divinyltetramethyldisiloxane] and `CC(C)CC(C)O` (stereo not shown) [4-Methyl-2-pentanol] cannot be ordered by CC50 at 24 h: greater than 90 µM for the first, greater than 90 µM for the second.

`NCCCC[C@H](NC(=O)[C@@H]1CCCN1C(=O)[C@@H]1CSSC[C@H](N)C(=O)N[C@@H](Cc2ccccc2)C(=O)N[C@@H](Cc2ccccc2)C(=O)N[C@@H](CCC(N)=O)C(=O)N[C@@H](CC(N)=O)C(=O)N1)C(=O)NCC(N)=O` [Felypressin] (H-CFFQNCPKG-NH2; disulfide 1-6) and `O=C(O)Cc1sc(-c2ccccc2)nc1-c1ccc(Cl)cc1` [Fentiazac] cannot be ordered by CC50 at 24 h: greater than 50 µM for the first, greater than 50 µM for the second.

First: CCN(CC)Cc1cc(Nc2ccnc3cc(Cl)ccc23)ccc1O [Amodiaquin dihydrochloride dihydrate]
Second: O=C(c1ccc(O)cc1)c1ccc(O)c(O)c1O [2,3,4,4'-Tetrahydroxybenzophenone]
The CC50 at 24 h of the first is lower: 13.5 µM for the first, greater than 90 µM for the second.

`CCCCNc1ccc(C(=O)OCCN(C)C)cc1` [Tetracaine hydrochloride] and `OCCCNc1ccccc1` [3-Anilinopropan-1-ol] cannot be ordered by CC50 at 24 h: greater than 20 µM for the first, greater than 50 µM for the second.

Compared with `Cc1ccc2ccccc2c1[N+](=O)[O-]` [1-Nitro-2-methylnaphthalene], `Oc1ccc(Oc2ccccc2)cc1` [4-Phenoxyphenol] is lower in CC50 at 24 h: greater than 90 µM for the first, 35.8 µM for the second.

`COc1cc([C@@H]2c3cc4c(cc3[C@@H](O[C@@H]3O[C@@H]5CO[C@@H](C)O[C@H]5[C@H](O)[C@H]3O)[C@H]3COC(=O)[C@H]23)OCO4)cc(OC)c1OP(=O)(O)O` [Etoposide phosphate] and `Cc1ccccc1CNc1ncnc2c1ncn2[C@@H]1O[C@H](CO)[C@@H](O)[C@H]1O` [Metrifudil] cannot be ordered by CC50 at 24 h: greater than 50 µM for the first, greater than 50 µM for the second.

Compared with `CC(C)=C[C@@H]1[C@@H](C(=O)OCc2coc(Cc3ccccc3)c2)C1(C)C` [Bioresmethrin], `NC(=O)N1C(=O)/C(=C(\O)c2cccs2)c2cc(Cl)ccc21` [Tenidap] is lower in CC50 at 24 h: greater than 90 µM for the first, 41.8 µM for the second.

`CCc1ccc(C(=O)C(C)CN2CCCCC2)cc1` (stereo not shown) [Eperisone hydrochloride] and `NCCc1ccc(O)cc1` [Tyramine hydrochloride] cannot be ordered by CC50 at 24 h: greater than 50 µM for the first, greater than 90 µM for the second.

`CC(C)(c1ccccc1)c1cc(-n2nc3ccccc3n2)c(O)c(C(C)(C)c2ccccc2)c1` [2-(2H-Benzotriazol-2-yl)-4,6-bis(1-methyl-1-phenylethyl)phenol] and `CC(C)(C)c1nnc(NS(=O)(=O)c2ccccc2)s1` [Glybuzole] cannot be ordered by CC50 at 24 h: greater than 50 µM for the first, greater than 50 µM for the second.

`COc1cc(NS(=O)(=O)c2ccc(N)cc2)nc(C)n1` [Sulfamethomidine] and `COc1ncnc(NS(=O)(=O)c2ccc(N)cc2)c1OC` [Sulfadoxine] cannot be ordered by CC50 at 24 h: greater than 50 µM for the first, greater than 50 µM for the second.

`CNCCc1ccccn1` [Betahistine mesylate] and `Cc1ccc(Cl)c(N)c1Cl` [2,6-Dichloro-3-methylaniline] cannot be ordered by CC50 at 24 h: greater than 20 µM for the first, greater than 90 µM for the second.

`Oc1ccc(-c2ccc(O)cc2)cc1` [4,4'-Biphenyldiol] and `Oc1cc(O)cc(O)c1` [1,3,5-Trihydroxybenzene dihydrate] cannot be ordered by CC50 at 24 h: greater than 90 µM for the first, greater than 50 µM for the second.

First: Nc1cc(Cl)c(O)c(Cl)c1 [4-Amino-2,6-dichlorophenol]
Second: Nc1cc(S(=O)(=O)O)cc2cc(S(=O)(=O)O)cc(O)c12 [Monosodium 8-amino-1-naphthol-3,6-disulfonate]
The CC50 at 24 h of the first is lower: 83.2 µM for the first, greater than 90 µM for the second.

`CC(=O)NCc1c(I)c(NC(C)=O)c(I)c(C(=O)O)c1I` [Iodamide] and `COC[C@@H](c1ccc(C(F)(F)F)cc1)N1CCN(C2(C)CCN(C(=O)c3c(C)ncnc3C)CC2)C[C@@H]1C` [Vicriviroc maleate] cannot be ordered by CC50 at 24 h: greater than 50 µM for the first, greater than 50 µM for the second.

`CCS(=O)(=O)CCn1c([N+](=O)[O-])cnc1C` [Tinidazole] and `Cc1ccc(C)o1` [2,5-Dimethylfuran] cannot be ordered by CC50 at 24 h: greater than 20 µM for the first, greater than 90 µM for the second.

`O=Cc1ccc(CO)o1` [5-(Hydroxymethyl)-2-furfural] gave a CC50 at 24 h greater than 90 µM.

same assay, conditions: rat, gh3-tre-luc cells, AC50 (uM) modified / 1000, Tox21_110001=Tox21_110442; viability, 1 nM T3 present, 24 h

In the case of `C[C@@H]1O[C@@H](O[C@@H]2C=C3CC[C@@H]4[C@H](CC[C@]5(C)[C@@H](c6ccc(=O)oc6)CC[C@]45O)[C@@]3(C)CC2)[C@H](O)[C@H](O)[C@H]1O` [Proscillaridin], the CC50 at 24 h is reported as greater than 20 µM.

same assay, conditions: rat, gh3-tre-luc cells, AC50 (uM) modified / 1000, Tox21_110001=Tox21_112042; viability, 1 nM T3 present, 24 h

Work on `CC(=O)[C@H]1CC[C@H]2[C@@H]3CC[C@@H]4C[C@H](O)CC[C@]4(C)[C@H]3CC[C@]12C` [Eltanolone] yielded a CC50 at 24 h greater than 50 µM.

same assay, conditions: rat, gh3-tre-luc cells, AC50 (uM) modified / 1000, Tox21_110001=Tox21_113045; viability, 1 nM T3 present, 24 h

`CNC(C)Cc1ccccc1OC` (stereo not shown) [Methoxyphenamine] showed a CC50 at 24 h greater than 50 µM.

same assay, conditions: rat, gh3-tre-luc cells, AC50 (uM) modified / 1000, Tox21_110001=Tox21_200566; viability, 1 nM T3 present, 24 h

Work on `FC(Cl)(Cl)C(F)(Cl)Cl` [1,2-Difluoro-1,1,2,2-tetrachloroethane] yielded a CC50 at 24 h greater than 100 µM.

same assay, conditions: rat, gh3-tre-luc cells, AC50 (uM) modified / 1000, Tox21_110001=Tox21_202864; viability, 1 nM T3 present, 24 h

`CCCCCCCCCBr` [n-Nonyl bromide] showed a CC50 at 24 h greater than 90 µM.

same assay, conditions: rat, gh3-tre-luc cells, AC50 (uM) modified / 1000, Tox21_110001=Tox21_301075; viability, 1 nM T3 present, 24 h

`N#CCNCC#N` [Iminodiacetonitrile] showed a CC50 at 24 h greater than 90 µM.
